Data reported in patent US6818407B2, “Anti-endotoxic antimicrobial cationic peptides and methods of use therfor” (priority 1998, dated 2004).
Ends that are not written are not given here.

Assays:
[1] = system: β-lactamase derepressed mutant (H547) of P. aeruginosa; assay: microbe, parasite or virus in culture; assay type: cell-based; conditions: for (B) MIC of Carb when combined with peptide: Carbenicillin with peptide at concentration (A); for (B) MIC of Carb when combined with peptide / FIC index / MIC A MIC of Peptides / (A) Peptide doses together with Carb: P. aeruginosa H547; for FIC index: peptide + Carbenicillin, about 0.5 or less synergy, 1.0 additivity, >1.0 antagonism; for MIC A MIC of Peptides: peptide alone; for (A) Peptide doses together with Carb: peptide concentration in combination with Carbenicillin
Protocol: (§1) The biological activity of the peptides can be determined by standard methods known to those of skill in the art, such as Aminimal inhibitory concentration (MIC)≅ assay described in the present examples, whereby the lowest concentration at which no change in OD is observed for a given period of time is recorded as MIC. Alternatively, Afractional inhibitory concentration (FIC)≅ is also useful for determination of synergy between the peptides of the invention, or the peptides in combination with known antibiotics. FICs are performed by checkerboard titrations of peptides in one dimension of a microtiter plate, and of antibiotics in the other dimension, for example. The FIC is calculated by looking at the impact of one antibiotic on the MIC of the other and vice versa. […] Preferably, an FIC of less than 0.5 is obtained for synergism. As used herein, FIC can be determined as follows: [formula]
(§2) To test whether the peptides of the invention synergize with various antibiotics, the following method was employed. Fractional Inhibitory Concentration (FIC) was used to determine synergy of peptides combined with antibiotics (e.g., carbenicillin/ciprofloxacin) against Pseudomonas aeruginosa. The following methodology was followed:
(§3) (1) Determination of MIC of cationic peptides (MIC A):
(§4) 100 μl Mueller Hinton broth (MHB) was added per well
(§5) 12.5 μl of 10× test concentration peptide was added per well to get final peptide concentration of e.g., 128, 64, 32, . . . 0.025 μg/ml from row 1 to 11;
(§6) 10 μl of 10^−4 dilution of overnight bacterial culture was added per well.
(§7) (2) Determination of MIC of Carbenicillin/Ciprofloxacin (MIC B):
(§8) 100 μl MHB was added per well;
(§9) 100 μl of 2× test concentration of antibiotic was added in the first well of the row, and doubling dilutions performed across the plate from column 1 to 11;
(§10) (3) Determination of MIC of antibiotics (B) when combined with peptides at concentration A:
(§11) 100 μl Carbenicillin (512 μg/ml) or Ciprofloxacin (8 μg/ml) was added in each well of column 1; doubling dilutions were performed across the plate;
(§12) 100 μl of the peptide was added in all wells of row 1, mixed, and 100 μl withdrawn and added to row 2, etc., creating a checkerboard titration.
(§13) 10 μl of 10^−4 dilution of overnight culture was added per well;
(§14) plates were incubated at 37EC for 18-24 hours. Combination MIC values A and B were taken as the lowest concentration of drug that reduced bacterial growth by more than 50% in any given column.
(§15) (4) FIC index=FICA+FICB=(A)/MIC A+(B)/MIC B. An FIC index of approximately 0.5 or less indicates synergy; 1.0 reflects additivity; and >1.0 indicates antagonism.

[2] = system: mutant (Nal B, H744) of P. aeruginosa; assay: microbe, parasite or virus in culture; assay type: cell-based; conditions: for (B) MIC of Cipro when combined with peptide: ciprofloxacin with peptide at concentration (A); for (B) MIC of Cipro when combined with peptide / FIC index / (A) Peptide doses together with Cipro: Nal B, H744; for FIC index: peptide + ciprofloxacin; for MIC A MIC of Peptides: peptide alone, P. aeruginosa mutant Nal B, H744 (Table 5); for (A) Peptide doses together with Cipro: peptide concentration in combination with ciprofloxacin
Protocol: as §1, §2, §3, §4, §5, §6, §7, §8, §9, §10, §11, §12, §13, §14, §15

[3] = system: P. aeruginosa efflux mutant (Nal B, H744); assay: microbe, parasite or virus in culture; assay type: cell-based; conditions: for (B) MIC of Nal when combined with peptide: nalidixic acid with peptide at concentration (A); for FIC index: peptide + nalidixic acid; for MIC A MIC of Peptides: peptide alone, P. aeruginosa efflux mutant Nal B, H744 (Table 6); for (A) Peptide doses together with Nal: peptide concentration in combination with nalidixic acid
Protocol: as §1, §2, §3, §4, §5, §6, §7, §8, §9, §10, §11, §12, §13, §14, §15

[4] = system: Salmonella typhimurium wild type (C587); assay type: cell-based; conditions: Mueller Hinton Broth
Protocol: as §1
(§16) These peptides varied in activity (Table 11), however, the C-terminally capped pleurocidin especially and its N-terminally capped lysine derivative had much better activities against a variety of bacteria including Vibrio anguillarum (Va), Aeromonas salmonicida (As), Staphylococcus epidermidis (C621), Salmonella typhimurium wild type (C587) and phoP phoQ mutant (C610), and Pseudomonas aeruginosa wild type (K799) and outer membrane barrier altered (Z61). The antimicrobial peptide CEME, a fusion peptide made from portions of an insect defensin ceropin A and the bee venom peptide melittin (Piers and Hancock, Mol. Microbiol., 12:951-8, 1994), as well as the known antibiotics polymyxin B and gentamicin were used as controls. Replacing the pleurocidin N-terminus with the dermaseptin N-terminus had no effect. Replacing pleurocidin N-terminus with the ceratoxin N-terminus reduced activity. […] Amidating the C-terminus improved antimicrobial activity. Replacing the pleurocidin C-terminus with the misgurin C-terminus had no effect.
(§17) Bacteria included Vibrio anguillarum (Va), Aeromonas salmonicida (As), Staphylococcus epidermidis (C621), Salmonella typhimurium wild type (C587) and phoP phoQ mutant (C6 10), and Pseudomonas aeruginosa wild type (K799) and outer membrane barrier altered (Z61).

Vibrio anguillarum (Va) = assay type: cell-based; conditions: Mueller Hinton Broth
Protocol: as §1, §16, §17

[5] = system: Staphylococcus epidermidis (C621); assay type: cell-based; conditions: Mueller Hinton Broth
Protocol: as §1, §16, §17

[6] = system: Pseudomonas aeruginosa outer membrane barrier altered (Z61); assay type: cell-based; conditions: Mueller Hinton Broth
Protocol: as §1, §16, §17

[7] = system: Aeromonas salmonicida (As); assay type: cell-based; conditions: Mueller Hinton Broth
Protocol: as §1, §16, §17

[8] = system: Pseudomonas aeruginosa wild type (K799); assay type: cell-based; conditions: Mueller Hinton Broth
Protocol: as §1, §16, §17

[9] = system: Salmonella typhimurium phoP phoQ mutant (C610); assay type: cell-based; conditions: Mueller Hinton Broth
Protocol: as §1, §16, §17

S. aureus K147 = assay: MIC, broth microdilution assay in polypropylene microtiter trays; assay type: cell-based; conditions: average of three separate experiments
Protocol: as §1
(§18) A method which employed polypropylene microtiter trays in a broth microdilution assay was developed.

P. aeruginosa = assay: as above; assay type: cell-based; conditions: average of three separate experiments
Protocol: as §1, §18

E. coli [10] = assay: as above; assay type: cell-based; conditions: average of three separate experiments
Protocol: as §1, §18

S. aureus = assay: as above; assay type: cell-based; conditions: average of three separate experiments
Protocol: as §1, §18

E. coli [11] = assay: Synergy study (checkerboard titration) with hen white lysozyme; assay type: cell-based; conditions: for Lowest [CP] showing synergy: cationic peptide concentration, combined with lysozyme; for Lowest [Lyso] showing synergy: lysozyme concentration, combined with the peptide
Protocol: as §1

Salmonella typhi = assay: as above; assay type: cell-based
Protocol: as §1

P. aeruginosa (H103) = assay: as above; assay type: cell-based; conditions: for Lowest [CP] showing synergy: cationic peptide concentration, combined with lysozyme; for Lowest [Lyso] showing synergy: lysozyme concentration, combined with the peptide
Protocol: as §1

[12] = system: P. aeruginosa gyrase mutant (Nal A, H374); assay type: cell-based; conditions: for (B) MIC of Nal when combined with peptide: nalidixic acid with peptide at concentration (A), unit from method; for (B) MIC of Nal when combined with peptide / FIC index / (A) Peptide doses together with Nal: Nal A; for FIC index: peptide + nalidixic acid; for MIC A MIC of Peptides: peptide alone, P. aeruginosa gyrase mutant Nal A; for (A) Peptide doses together with Nal: peptide concentration in combination with nalidixic acid
Protocol: as §1, §2, §3, §4, §5, §6, §7, §8, §9, §10, §11, §12, §13, §14, §15

[13] = system: Pseudomonas aeruginosa strain M2; assay: Protection of neutropenic CD-1 mice challenged with Pseudomonas aeruginosa; assay type: in vivo; parameters: Survival post bacterial challenge, surviving mice: reference not given here; conditions: for Survival (%) post bacterial challenge: PBS 8
Protocol: CD-1 mice were induced to be neutropenic via 3 intraperitoneal injections of cyclophosphamide ([…]) every another day. Immediately after the third administration of cyclophosphamide, the mice were challenged by intraperitoneal injection of Pseudomonas aeruginosa strain M2 (200-300 organisms/mouse). Cationic peptides (200 µg per mouse=8 mg/kg) in 100 µl buffered citrate were injected intraperitoneally at 30 min (single dose) or 30 min and 16 hrs (double dose) post bacterial challenge, respectively. The data were the average values of 2 individual experiments. PBS was used as a control. […] In general single dose protection studies gave better protection than double dose experiments.

[14] = efflux mutant Nal B, H744, unit from method

## CC1(C)S[C@@H]2[C@H](NC(=O)C(C(=O)O)c3ccccc3)C(=O)N2[C@H]1C(=O)O (some centres unmarked) [Carb, Carbenicillin, reference compound]
[1]; Pseudomonas aeruginosa, read-out: MIC B MIC of Carb
  MIC: 64 µg/mL

## O=C(O)c1cn(C2CC2)c2cc(N3CCNCC3)c(F)cc2c1=O [Cipro, ciprofloxacin, reference compound]
[2]; Pseudomonas aeruginosa, read-out: MIC B MIC of Cipro
  MIC: 0.25 µg/mL

## CCn1cc(C(=O)O)c(=O)c2ccc(C)nc21 [Nal, nalidixic acid, reference compound]
[3]; Pseudomonas aeruginosa, read-out: MIC B MIC of Nal
  MIC: 3200 µg/mL
[3]; nalidixic acid alone, efflux mutant Nal B, H744, unit from method
  MIC B MIC of Nal: 3200 µg/mL

## ALWKTMLKKAAHVGKHVGKAALGAAARRRK [DER-M]
[4]
  MIC C587: 32 µg/mL
Vibrio anguillarum (Va)
  MIC Va: >64 µg/mL
[5]
  MIC C621: 32 µg/mL
[6]
  MIC Z61: 8 µg/mL
[7]
  MIC As: 2 µg/mL
[8]
  MIC K799: 64 µg/mL
[9]
  MIC C610: 0.5 µg/mL

## KKWKKFIKKIGIGAVLTTPGAKK [CPα3]
S. aureus K147
  MIC S. aureus K147: >64 µg/mL
P. aeruginosa
  MIC P. aeruginosa: ≧64 μg/ml
E. coli [10]
  MIC E. coli: 4 µg/mL
S. aureus
  MIC S. aureus: >64 µg/mL
E. coli [11]
  FIC for combination of cationic peptide and lysozyme: 0.31
  Lowest [CP] showing synergy: 0.65 µg/mL
  Lowest [Lyso] showing synergy: 62.5 µg/mL
Salmonella typhi
  FIC for combination of cationic peptide and lysozyme: Confluent
P. aeruginosa (H103)
  FIC for combination of cationic peptide and lysozyme: 0.08
  Lowest [CP] showing synergy: 1.3 µg/mL
  Lowest [Lyso] showing synergy: 7.8 µg/mL
[3]; [14]
  (B) MIC of Nal when combined with peptide: 400 µg/mL
[3]; efflux mutant Nal B, H744
  FIC index: 0.50
  (A) Peptide doses together with Nal: 1 µg/mL
[3]
  MIC A MIC of Peptides: 4 µg/mL
[2]
  (B) MIC of Cipro when combined with peptide: .125 µg/mL
  FIC index: .75
  MIC A MIC of Peptides: 4 µg/mL
  (A) Peptide doses together with Cipro: 1 µg/mL
[1]
  (B) MIC of Carb when combined with peptide: 32 µg/mL
  FIC index: 0.75
  MIC A MIC of Peptides: 16 µg/mL
  (A) Peptide doses together with Carb: 4 µg/mL
[12]
  (B) MIC of Nal when combined with peptide: 800 µg/mL
  FIC index: 0.50
  MIC A MIC of Peptides: 8 µg/mL
  (A) Peptide doses together with Nal: 1 µg/mL

## KWKSFIKKLTSAAKKVTTAAKPLTK [CPα1]
S. aureus K147
  MIC S. aureus K147: >64 µg/mL
P. aeruginosa
  MIC P. aeruginosa: ≧64 μg/ml
E. coli [10]
  MIC E. coli: 1.5 µg/mL
S. aureus
  MIC S. aureus: >64 µg/mL
E. coli [11]
  FIC for combination of cationic peptide and lysozyme: 0.31
  Lowest [CP] showing synergy: 0.65 µg/mL
  Lowest [Lyso] showing synergy: 7.8 µg/mL
Salmonella typhi
  FIC for combination of cationic peptide and lysozyme: 0.63
Salmonella typhi; cationic peptide concentration, combined with lysozyme
  Lowest [CP] showing synergy: 41.7 µg/mL
Salmonella typhi; lysozyme concentration, combined with the peptide
  Lowest [Lyso] showing synergy: 125 µg/mL
P. aeruginosa (H103)
  FIC for combination of cationic peptide and lysozyme: 0.28
  Lowest [CP] showing synergy: 5.21 µg/mL
  Lowest [Lyso] showing synergy: 7.8 µg/mL
[3]; [14]
  (B) MIC of Nal when combined with peptide: 400 µg/mL
[3]; efflux mutant Nal B, H744
  FIC index: 0.38
  (A) Peptide doses together with Nal: 1 µg/mL
[3]
  MIC A MIC of Peptides: 8 µg/mL
[2]
  (B) MIC of Cipro when combined with peptide: .125 µg/mL
  FIC index: .63
  MIC A MIC of Peptides: 8 µg/mL
  (A) Peptide doses together with Cipro: 1 µg/mL
[1]
  (B) MIC of Carb when combined with peptide: 32 µg/mL
  FIC index: 0.75
  MIC A MIC of Peptides: 16 µg/mL
  (A) Peptide doses together with Carb: 4 µg/mL
[12]
  (B) MIC of Nal when combined with peptide: 800 µg/mL
  FIC index: 0.38
  MIC A MIC of Peptides: 8 µg/mL
  (A) Peptide doses together with Nal: 1 µg/mL

## KWKSFIKKLTSAAKKVVTTAKPLISS (H-KWKSFIKKLTSAAKKVVTTAKPLISS-OH) [CP26, reference compound]
[13]; single dose (200 μg per mouse i.p. at 30 min), 16 hr
  Survival post bacterial challenge, surviving mice: 8
[13]; single dose, 24 hr
  Survival post bacterial challenge, surviving mice: 8
[13]; single dose, 41 hr
  Survival post bacterial challenge, surviving mice: 6
[13]; single dose, 48 hr
  Survival post bacterial challenge, surviving mice: 4
[13]; single dose, 64 hr
  Survival post bacterial challenge, surviving mice: 3
  Survival (%) post bacterial challenge: 37%
[13]; single dose, 72 hr
  Survival post bacterial challenge, surviving mice: 3
  Survival (%) post bacterial challenge: 37%
[13]; single dose, 96 hr
  Survival post bacterial challenge, surviving mice: 3
  Survival (%) post bacterial challenge: 37%
